Among the data in patent publication US11524966B1 (Valo Early Discovery, Inc., priority 2017, dated 2022) are IC50 values, retold here.

The target in this test is T1, USP28 (His-tagged USP28-FL-mammalian) (Homo sapiens, UniProt Q96RU2).
T1 construct: Expression of USP28 (1-1077)-TEV-6*His (pTT5 vector); made in house; host or cells: Expi293f cells (pTT5 vector)
T1 sequence (Q96RU2 1-1077): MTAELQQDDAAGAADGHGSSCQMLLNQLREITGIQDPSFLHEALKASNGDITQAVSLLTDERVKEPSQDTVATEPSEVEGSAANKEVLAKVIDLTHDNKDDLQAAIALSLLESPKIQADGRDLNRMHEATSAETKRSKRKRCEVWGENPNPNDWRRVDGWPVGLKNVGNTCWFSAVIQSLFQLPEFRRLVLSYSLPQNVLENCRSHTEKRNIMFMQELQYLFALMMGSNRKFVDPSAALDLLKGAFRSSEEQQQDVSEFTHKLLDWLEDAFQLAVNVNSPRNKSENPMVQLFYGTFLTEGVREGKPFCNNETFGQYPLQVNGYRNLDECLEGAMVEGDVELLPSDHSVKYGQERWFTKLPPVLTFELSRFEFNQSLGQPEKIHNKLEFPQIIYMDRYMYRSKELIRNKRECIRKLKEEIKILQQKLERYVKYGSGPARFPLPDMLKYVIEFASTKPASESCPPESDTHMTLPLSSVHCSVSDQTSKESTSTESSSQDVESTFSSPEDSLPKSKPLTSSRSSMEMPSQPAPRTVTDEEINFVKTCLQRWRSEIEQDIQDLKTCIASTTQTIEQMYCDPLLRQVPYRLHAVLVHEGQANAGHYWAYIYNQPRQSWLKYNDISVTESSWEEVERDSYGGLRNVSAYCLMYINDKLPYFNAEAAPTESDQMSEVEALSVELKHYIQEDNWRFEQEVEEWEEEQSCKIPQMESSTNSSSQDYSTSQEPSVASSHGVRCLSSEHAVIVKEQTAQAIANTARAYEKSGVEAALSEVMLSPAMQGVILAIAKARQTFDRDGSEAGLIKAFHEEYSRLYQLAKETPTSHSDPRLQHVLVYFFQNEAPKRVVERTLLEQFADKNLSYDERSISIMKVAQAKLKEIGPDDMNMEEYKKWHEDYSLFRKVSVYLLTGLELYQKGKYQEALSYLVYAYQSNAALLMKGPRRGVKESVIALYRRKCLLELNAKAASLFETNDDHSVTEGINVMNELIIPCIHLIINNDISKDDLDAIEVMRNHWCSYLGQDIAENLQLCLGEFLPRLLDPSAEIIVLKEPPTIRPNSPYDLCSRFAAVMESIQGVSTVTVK
Kind of test: Ubiquitin-Rhodamine 110 Assay for USP28 Activity, Example A-1(a). It is filed as biochemical. The conditions noted are these: Ubiquitin-Rhodamine 110 assay, Example A-1(a); read-out: USP28 A-1(a) IC50 range. How it is done:
Example A-1(a): Biochemical Assay: Ubiquitin-Rhodamine 110 Assay for USP28 Activity
The assay was performed in a final volume of 9 μL in assay buffer containing 20 mM Tris-HCl (pH 8.0, (1M Tris-HCl, pH 8.0 solution; Corning 46-031-CM)), 3 mM BME (2-Mercaptoethanol; Sigma 63689-25ML-F), 0.03% BGG (0.22 μM filtered, Sigma, G7516-25G), and 0.01% Triton X-100 (Sigma, T9284-10L). Nanoliter quantities of 10-point, 3-fold serial dilution in DMSO was pre-dispensed into 1536 assay plates (Corning, #3724BC) for a final test concentration of 25 μM to 1.3 nM, top to lowest dose, respectively. Enzyme USP28, construct His-tagged USP28-FL-mammalian, (protein expression and purification procedure described below). Concentration and incubation times were optimized for the maximal signal-to-background while maintaining initial velocity conditions at a fixed substrate concentration. The final concentration of the enzyme in the assay was 75 μM. Final substrate (Ub-Rh110; Ubiquitin-Rhodamine 110, UbiQ-126) concentration was 25 nM with [Ub-Rh110]<<Km. 3 μL of 2× enzyme was added to assay plates (pre-stamped with compound) preincubated with […] for 30 minutes and then 3 μL of 2×Ub-Rh110 was added to assay plates. Plates were incubated for 45 minutes at room temperature before addition of 3 μL of stop solution (final concentration of 10 mM citric acid (Sigma, 251275-500G)). Fluorescence was read on the Envision (Excitation at 485 nm and Emission at 535 nm; Perkin Elmer) or on the PheraSTAR (Excitation at 485 nm and Emission at 535 nm; BMG Labtech).
Procedure for the Protein Expression and Purification for Construct His-Tagged USP28-FL-Mammalian
Expression of USP28 (1-1077)-TEV-6*His (pTT5 vector) was carried out in Expi293f cells (sequence derived from uniprot ID: Q96RU2-1). Cells were re-suspended in lysis buffer B 50 mM Bicine, pH 8.0, 20 mM NaCl, 5% glycerol, 0.1% CHAPS, 5 mM β-ME, 1 mM PMSF, 1 ug/ml Leupeptin, 1 ug/ml Pepstatin) and lysed by sonication. Insoluble material was removed by centrifugation and the supernatant was loaded onto a Ni-NTA column (GE Healthcare) equilibrated with Ni Buffer A (50 mM Bicine, pH 8.0, 20 mM NaCl, 5% glycerol, 0.1% CHAPS, 5 mM β-ME.) and washed with Ni Buffer A+20 mM imidazole until A280 reached baseline. The protein was eluted with Ni Buffer B (50 mM Bicine, pH 8.0, 20 mM NaCl, 5% glycerol, 0.1% CHAPS, 5 mM β-ME, 300 mM imidazole.). The protein was further purified using a Superdex™ 200 10/300 GL column (GE Healthcare) equilibrated with 50 mM Bicine, pH 8.0, 20 mM NaCl, 5% glycerol, 0.1% CHAPS, 5 mM β-ME. The protein was concentrated to 2.5 mg ml^−1, flash-frozen in liquid N2 and stored at −80° C.
For assay formats Example A-1(a), A-1(b), and A-2, data were reported as percent inhibition compared with control wells based on the following equation: % inh=1−((FLU−AveLow)/(AveHigh−AveLow)) where FLU=measured Fluorescence, AveLow=average Fluorescence of no enzyme control (n=16), and AveHigh=average Fluorescence of DMSO control (n=16). IC50 values were determined by curve fitting of the standard 4 parameter logistic fitting algorithm included in the Activity Base software package: IDBS XE Designer Model 205. Data is fitted using the Levenburg Marquardt algorithm.
With `Cc1ccc2c(N)c(C(=O)N[C@H]3CCc4nc(N5CC6(C[C@H](N)CO6)C5)ccc4C3)sc2n1` [Example 399, 3-amino-N-[(6S)-2-[(7S)-7-amino-5-oxa-2-azaspiro[3.4]octan-2-yl]-5,6,7,8-tetrahydroquinolin-6-yl]-6-methylthieno[2,3-b]pyridine-2-carboxamide], the IC50 lay in the range of 1 to 50 nM.

In the case of `Cc1ccc2c(N)c(C(=O)N[C@H]3CCc4nc(N5C[C@@H](N)[C@@]6(CCOC6)C5)ccc4C3)sc2n1` [Example 431, 3-amino-N-[(6S)-2-[(5R,9S)-9-amino-2-oxa-7-azaspiro[4.4]nonan-7-yl]-5,6,7,8-tetrahydroquinolin-6-yl]-6-methylthieno[2,3-b]pyridine-2-carboxamide], the IC50 was 50 to 200 nM.

Take `Cc1ccc2c(N)c(C(=O)N[C@H]3COc4cc(N5C[C@@H](N)[C@]6(CCOC6)C5)ccc4C3)sc2n1` [Example 432, 3-amino-N-[(3R)-7-[(5S,9S)-9-amino-2-oxa-7-azaspiro[4.4]nonan-7-yl]-3,4-dihydro-2H-1-benzopyran-3-yl]-6-methylthieno[2,3-b]pyridine-2-carboxamide]: the IC50 is 1 to 50 nM.

Take `Cc1ccc2c(N)c(C(=O)N[C@H]3CCc4nc(N5CC[C@]6(C5)OCC[C@H]6N)ccc4C3)sc2n1` [Example 408, 3-amino-N-[(6S)-2-[(4R,5R)-4-amino-1-oxa-7-azaspiro[4.4]nonan-7-yl]-5,6,7,8-tetrahydroquinolin-6-yl]-6-methylthieno[2,3-b]pyridine-2-carboxamide]: the IC50 fell in the range of 50 to 200 nM.

Regarding `Cc1ccc2c(N)c(C(=O)N[C@H]3CCc4nc(N5C[C@@H](N)[C@H](C(F)F)C5)ncc4C3)sc2n1` [Example 381, 3-amino-N-[(6S)-2-[(3S,4R)-3-amino-4-(difluoromethyl)pyrrolidin-1-yl]-5,6,7,8-tetrahydroquinazolin-6-yl]-6-methylthieno[2,3-b]pyridine-2-carboxamide], the IC50 fell in the range of 200 to 2000 nM.

Turning to `CC(=O)N[C@@H]1CN(c2ccc3c(n2)CC[C@H](NC(=O)c2sc4nc(C)ccc4c2N)C3)C[C@H]1C(F)F` [Example 372, 3-amino-N-[(6S)-2-[(3R,4S)-3-(difluoromethyl)-4-acetamidopyrrolidin-1-yl]-5,6,7,8-tetrahydroquinolin-6-yl]-6-methylthieno[2,3-b]pyridine-2-carboxamide], the half-maximal inhibitory concentration (IC50) lay within 50 to 200 nM.

As for `Cc1ccc2c(N)c(C(=O)N[C@H]3CCc4cc(N5CCNCC5)ncc4C3)sc2n1` (single isomer, unassigned) [Example 32-1], the 50% inhibitory concentration (IC50) fell in the range of 50 to 200 nM.

As to `Cc1ccc2c(N)c(C(=O)N[C@H]3COc4nc(N5C[C@@H](N)[C@H](C(F)F)C5)ccc4C3)sc2n1` [Example 379, 3-amino-N-[(3R)-7-[(3S,4R)-3-amino-4-(difluoromethyl)pyrrolidin-1-yl]-2H,3H,4H-pyrano[2,3-b]pyridin-3-yl]-6-methylthieno[2,3-b]pyridine-2-carboxamide], the IC50 was 200 to 2000 nM.

Take `COC[C@@]1(N)CCN(c2ccc3c(n2)CC[C@H](NC(=O)c2sc4nc(C)ccc4c2N)C3)C1` [Example 388, 3-amino-N-[(6S)-2-[(3R)-3-amino-3-(methoxymethyl)pyrrolidin-1-yl]-5,6,7,8-tetrahydroquinolin-6-yl]-6-methylthieno[2,3-b]pyridine-2-carboxamide]: the IC50 lay in the range of 50 to 200 nM.

Turning to `Cc1ccc2c(N)c(C(=O)N[C@H]3CCc4nc(N5C[C@H](CF)[C@H](N)C5)ccc4C3)sc2n1` (single isomer, unassigned) [Example 27-2], the IC50 lay within 50 to 200 nM.

Turning to `Cc1ccc2c(N)c(C(=O)N[C@H]3CCc4nc(N5C[C@@H](CF)[C@H](N)C5)ccc4C3)sc2n1` [Example 385, 3-amino-N-[(6S)-2-[(3S,4R)-3-amino-4-(fluoromethyl)pyrrolidin-1-yl]-5,6,7,8-tetrahydroquinolin-6-yl]-6-methylthieno[2,3-b]pyridine-2-carboxamide], the half-inhibitory concentration (IC50) was in the range of 50 to 200 nM.

On to `CO[C@H]1CN(c2ncc3c(n2)CC[C@@H](NC(=O)c2sc4nc(C)cc(C)c4c2N)C3)C[C@@H]1N` [Example 274, 3-amino-N-[(6R)-2-[(3S,4S)-3-amino-4-methoxypyrrolidin-1-yl]-5,6,7,8-tetrahydroquinazolin-6-yl]-4,6-dimethylthieno[2,3-b]pyridine-2-carboxamide], for which the concentration for half-maximal inhibition (IC50) was 200 to 2000 nM.

As for `Cc1ccc2c(N)c(C(=O)N[C@H]3CCc4nc(N5C6CC(N)CC5CS(=O)(=O)C6)ccc4C3)sc2n1` (stereo partly drawn) [Example 429, 3-amino-N-[(6S)-2-{7-amino-3,3-dioxo-3λ^6-thia-9-azabicyclo[3.3.1]nonan-9-yl}-5,6,7,8-tetrahydroquinolin-6-yl]-6-methylthieno[2,3-b]pyridine-2-carboxamide], the 50% inhibitory concentration (IC50) fell in the range of 1 to 50 nM.

In the case of `Cc1ccc2c(N)c(C(=O)N[C@H]3COc4cc(N5C[C@@H](N)[C@@]6(CCOC6)C5)ccc4C3)sc2n1` [Example 433, 3-amino-N-[(3R)-7-[(5R,9S)-9-amino-2-oxa-7-azaspiro[4.4]nonan-7-yl]-3,4-dihydro-2H-1-benzopyran-3-yl]-6-methylthieno[2,3-b]pyridine-2-carboxamide], the half-maximal inhibitory concentration (IC50) is 1 to 50 nM.

Regarding `CN[C@H]1CN(c2ccc3c(n2)CC[C@H](NC(=O)c2sc4nc(C)ccc4c2N)C3)C[C@@H]1COC` (single isomer, unassigned) [Example 26-1], the IC50 was in the range of 50 to 200 nM.

Regarding `CCn1ccc2cc(C(=O)N[C@H]3CCc4nc(N5C[C@H](NC)[C@@H](OC)C5)ccc4C3)cnc21` [Example 402, 1-ethyl-N-[(6S)-2-[(3S,4S)-3-methoxy-4-(methylamino)pyrrolidin-1-yl]-5,6,7,8-tetrahydroquinolin-6-yl]-1H-pyrrolo[2,3-b]pyridine-5-carboxamide], the half-inhibitory concentration (IC50) fell in the range of 200 to 2000 nM.

One may read the IC50 as the concentration that gives 50% inhibition.
